Test results: ChEMBL document CHEMBL4350972, “Design, synthesis and pharmacological evaluation of a novel mTOR-targeted anti-EV71 agent” (Eur J Med Chem, 2019)
Converted amounts (≈) assume the structure as drawn. The source made the active and inactive calls. The rule behind the calls is not given here.

Key:
[1] = Cytotoxicity against human RD cells incubated for 4 days by CellTiter-Glo luminescence assay; format: cell-based
[2] = Ratio of aqueous solubility for Torin2 to aqueous solubility for test compound; format: physicochemical; conditions: buffer
[3] = molecular target: mTORC2 (Homo sapiens) (UniProt P42345+Q6R327+Q9BVC4+Q9BPZ7); experiment: Inhibition of mTORC2 in human RD cells assessed as reduction in Akt phosphorylation at Ser473 site at 20 uM incubated for 2 hrs in presence of insulin by Western blot analysis; format: cell-based
[4] = molecular target: mTORC1 (Homo sapiens) (UniProt P42345+Q8N122+Q9BVC4); experiment: Inhibition of mTORC1 in human RD cells assessed as reduction in P70S6K1 phosphorylation at Thr 389 site at 20 uM incubated for 2 hrs in presence of insulin by Western blot analysis; format: cell-based
[5] = tested on: Enterovirus A71; experiment: Antiviral activity against Enterovirus A71 infected in human RD cells assessed as reduction in virus-induced cell death incubated for 4 days by CellTiter-Glo luminescence assay; format: functional, organism-based; conditions: Enterovirus A, 96 h
[6] = Aqueous solubility of the compound; format: physicochemical

## O=c1oc2cnc3ccc(-c4cnc5ccccc5c4)cc3c2n1-c1cccc(C(F)(F)F)c1
[1]
  CC50 at 96 h: 68900 nM

## O=c1ccc2cnc3ccc(-c4cccnc4F)cc3c2n1-c1cccc(C(F)(F)F)c1
[2]
  Ratio: 5
[3]
  inhibition: Active
[4]
  inhibition: Active
[5]
  IC50: 59 nM
[1]
  CC50 at 96 h: 1230 nM

## O=c1ccc2cnc3ccc(-c4ccc(N5CCOCC5)nc4)cc3c2n1-c1cccc(C(F)(F)F)c1
[3]
  inhibition: Active
[4]
  inhibition: Active
[5]
  IC50: 2630 nM
[1]
  CC50 at 96 h: 2910 nM

## CC(C)C(=O)Nc1ccc(-c2ccc3ncc4ccc(=O)n(-c5cccc(C(F)(F)F)c5)c4c3c2)cn1
[3]
  inhibition: Active
[4]
  inhibition: Active
[5]
  IC50: 820 nM
[1]
  CC50 at 96 h: 460 nM

## Nc1ccc(-c2ccc3ncc4ccc(=O)n(-c5cccc(C(F)(F)F)c5)c4c3c2)cn1
[6]
  solubility: 1.29 µg/mL (≈ 2.98 µM)
[5]
  IC50: 10 nM

## COc1cncc(-c2ccc3ncc4oc(=O)n(-c5cccc(C(F)(F)F)c5)c4c3c2)c1
[1]
  CC50 at 96 h: 68500 nM

## CN(C)c1ccc(-c2ccc3ncc4ccc(=O)n(-c5cccc(C(F)(F)F)c5)c4c3c2)cn1
[3]
  inhibition: Active
[4]
  inhibition: Active
[5]
  IC50: 270 nM
[1]
  CC50 at 96 h: 170 nM

## COc1ncccc1-c1ccc2ncc3ccc(=O)n(-c4cccc(C(F)(F)F)c4)c3c2c1
[1]
  CC50 at 96 h: > 200000 nM

## CCC(=O)Nc1ccc(-c2ccc3ncc4ccc(=O)n(-c5cccc(C(F)(F)F)c5)c4c3c2)cn1
[3]
  inhibition: Active
[4]
  inhibition: Active
[5]
  IC50: 27 nM
[1]
  CC50 at 96 h: 40 nM

## O=C(Cc1ccccc1)Nc1ccc(-c2ccc3ncc4ccc(=O)n(-c5cccc(C(F)(F)F)c5)c4c3c2)cn1
[3]
  inhibition: Active
[4]
  inhibition: Active
[5]
  IC50: 560 nM
[1]
  CC50 at 96 h: 740 nM

## Nc1cccc(Nc2ccc3ncc4ccc(=O)n(-c5cccc(C(F)(F)F)c5)c4c3c2)c1
[3]
  inhibition: Active
[4]
  inhibition: Active
[5]
  IC50: 890 nM
[1]
  CC50 at 96 h: 7580 nM

## COc1ccc(-c2ccc3ncc4ccc(=O)n(-c5cccc(C(F)(F)F)c5)c4c3c2)cn1
[3]
  inhibition: Active
[4]
  inhibition: Active
[5]
  IC50: 40 nM
[1]
  CC50 at 96 h: 130 nM

## CC(=O)/C=C/c1cnc2ccc(-c3ccc(F)nc3)cc2c1Nc1cccc(C(F)(F)F)c1
[1]
  CC50 at 96 h: 2230 nM

## CCCCC(=O)Nc1ccc(-c2ccc3ncc4ccc(=O)n(-c5cccc(C(F)(F)F)c5)c4c3c2)cn1
[3]
  inhibition: Active
[4]
  inhibition: Active
[5]
  IC50: 200 nM
[1]
  CC50 at 96 h: 700 nM

## O=c1ccc2cnc3ccc(-c4ccc(F)nc4)cc3c2n1-c1cccc(C(F)(F)F)c1
[3]
  inhibition: Active
[4]
  inhibition: Active
[5]
  IC50: 70 nM
[1]
  CC50 at 96 h: 230 nM

## COC(=O)/C=C/c1ccc2ncc3oc(=O)n(-c4cccc(C(F)(F)F)c4)c3c2c1
[1]
  CC50 at 96 h: 72000 nM

## NC(=O)NC/C=C/c1ccc2ncc3oc(=O)n(-c4cccc(C(F)(F)F)c4)c3c2c1
[3]
  inhibition: inactive
[4]
  inhibition: inactive
[5]
  IC50: 48900 nM
[1]
  CC50 at 96 h: 66600 nM

## CC(=O)/C=C/c1cnc2ccc(-c3ccc(N)cc3)cc2c1Nc1cccc(C(F)(F)F)c1
[3]
  inhibition: inactive
[4]
  inhibition: inactive
[5]
  IC50: 5140 nM
[1]
  CC50 at 96 h: 5140 nM

## CC(=O)/C=C/c1cnc2ccc(-c3cnc4ccccc4c3)cc2c1Nc1cccc(C(F)(F)F)c1
[1]
  CC50 at 96 h: 680 nM

## CCCC(=O)Nc1ccc(-c2ccc3ncc4ccc(=O)n(-c5cccc(C(F)(F)F)c5)c4c3c2)cn1
[3]
  inhibition: Active
[4]
  inhibition: Active
[5]
  IC50: 170 nM
[1]
  CC50 at 96 h: 750 nM

## Cc1ccc(-c2ccc3ncc4oc(=O)n(-c5cccc(C(F)(F)F)c5)c4c3c2)cn1
[3]
  inhibition: inactive
[4]
  inhibition: inactive
[5]
  IC50: 4780 nM
[1]
  CC50 at 96 h: 16900 nM

## O=C1Cc2cc(-c3ccc4ncc5ccc(=O)n(-c6cccc(C(F)(F)F)c6)c5c4c3)ccc2N1
[4]
  inhibition: Active
[5]
  IC50: 7400 nM
[1]
  CC50 at 96 h: 10300 nM

## CN1CCN(c2ccc(-c3ccc4ncc5ccc(=O)n(-c6cccc(C(F)(F)F)c6)c5c4c3)cn2)CC1
[2]
  Ratio: 15
[4]
  inhibition: Active
[5]
  IC50: 90 nM
[1]
  CC50 at 96 h: 180 nM

## CO[C@H]1C[C@@H]2CC[C@@H](C)[C@@](O)(O2)C(=O)C(=O)N2CCCC[C@H]2C(=O)O[C@H]([C@H](C)C[C@@H]2CC[C@@H](O)[C@H](OC)C2)CC(=O)[C@H](C)/C=C(\C)[C@@H](O)[C@@H](OC)C(=O)[C@H](C)C[C@H](C)/C=C/C=C/C=C/1C
[4]
  inhibition: Active

## CC(C)(C)OC(=O)Nc1ccc(-c2ccc3ncc4ccc(=O)n(-c5cccc(C(F)(F)F)c5)c4c3c2)cn1
[3]
  inhibition: Active
[4]
  inhibition: Active
[5]
  IC50: 2470 nM
[1]
  CC50 at 96 h: 690 nM

## CC(=O)/C=C/c1cnc2ccc(-c3cccc(N)c3)cc2c1Nc1cccc(C(F)(F)F)c1
[1]
  CC50 at 96 h: > 200000 nM

## O=c1ccc2cnc3ccc(-c4ccc(N5CCCC5)nc4)cc3c2n1-c1cccc(C(F)(F)F)c1
[3]
  inhibition: Active
[4]
  inhibition: Active
[5]
  IC50: 2470 nM
[1]
  CC50 at 96 h: 1790 nM

## Nc1cccc(Nc2ccc3ncc4ccc(=O)n(-c5cccc(C(F)(F)F)c5)c4c3c2)n1
[3]
  inhibition: Active
[4]
  inhibition: Active
[5]
  IC50: 2470 nM
[1]
  CC50 at 96 h: 5190 nM

## COc1cncc(-c2ccc3ncc(/C=C/C(C)=O)c(Nc4cccc(C(F)(F)F)c4)c3c2)c1
[1]
  CC50 at 96 h: > 200000 nM

## N#C/C=C/c1ccc2ncc3oc(=O)n(-c4cccc(C(F)(F)F)c4)c3c2c1
[1]
  CC50 at 96 h: > 200000 nM

## O=C(Nc1ccc(-c2ccc3ncc4ccc(=O)n(-c5cccc(C(F)(F)F)c5)c4c3c2)cn1)Oc1ccccc1
[3]
  inhibition: Active
[4]
  inhibition: Active
[5]
  IC50: 90 nM
[1]
  CC50 at 96 h: 200 nM

## O=C(Nc1ccc(-c2ccc3ncc4ccc(=O)n(-c5cccc(C(F)(F)F)c5)c4c3c2)cn1)OCc1ccccc1
[3]
  inhibition: Active
[4]
  inhibition: Active
[5]
  IC50: 23700 nM
[1]
  CC50 at 96 h: 1000 nM
